Assay results taken from ChEMBL document CHEMBL1201862, “PubChem BioAssay data set” (2004).
Activity calls are given as the source filed them.

Assays:
[1] = molecular target: Ion channel NompC (Danio rerio, UniProt Q7T1G6); test: Fluorescence counterscreen assay for TRPML3 agonists: dose response cell-based high-throughput screening assay to identify agonists of the transient receptor potential channel N1 (TRPN1). [Related pubchem assays: 1526, 1424, 1448 ]; type: functional
[2] = molecular target: T1, Mucolipin-3 (Homo sapiens, UniProt Q8TDD5); test: Dose response cell-based high-throughput screening assay for agonists of the transient receptor potential channel ML3 (TRPML3). [Related pubchem assays: 1526, 1424, 1448 ]; type: functional
T1 sequence (Q8TDD5 whole entry): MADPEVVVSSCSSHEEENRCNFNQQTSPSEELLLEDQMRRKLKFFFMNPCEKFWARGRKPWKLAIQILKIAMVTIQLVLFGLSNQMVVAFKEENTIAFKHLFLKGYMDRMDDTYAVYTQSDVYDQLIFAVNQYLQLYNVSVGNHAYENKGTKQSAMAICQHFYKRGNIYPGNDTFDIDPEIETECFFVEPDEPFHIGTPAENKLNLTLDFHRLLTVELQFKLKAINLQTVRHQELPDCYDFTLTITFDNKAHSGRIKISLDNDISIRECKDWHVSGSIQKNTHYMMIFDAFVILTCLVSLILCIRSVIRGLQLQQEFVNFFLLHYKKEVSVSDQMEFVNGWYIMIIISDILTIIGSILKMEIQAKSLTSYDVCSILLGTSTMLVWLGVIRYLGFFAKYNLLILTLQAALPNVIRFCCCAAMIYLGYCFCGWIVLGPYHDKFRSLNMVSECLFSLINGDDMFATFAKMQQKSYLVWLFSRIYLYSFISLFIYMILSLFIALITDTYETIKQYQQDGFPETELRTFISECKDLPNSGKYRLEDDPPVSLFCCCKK

[3] = molecular target: T2, Heat shock factor protein 1 (Mus musculus, UniProt P38532); test: decrease of HSF1-responsive luciferase luminescence – cell-based, NIH3T3, dose retest, confirmation (AID 2382); type: functional;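 note: NIH3T3 fibroblasts with HSF1-driven luciferase reporter stressed by proteasome inhibitor MG132; luminescence from HSF1-driven luciferase expression after 8 hours of MG132 stress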
T2 sequence (P38532 whole entry): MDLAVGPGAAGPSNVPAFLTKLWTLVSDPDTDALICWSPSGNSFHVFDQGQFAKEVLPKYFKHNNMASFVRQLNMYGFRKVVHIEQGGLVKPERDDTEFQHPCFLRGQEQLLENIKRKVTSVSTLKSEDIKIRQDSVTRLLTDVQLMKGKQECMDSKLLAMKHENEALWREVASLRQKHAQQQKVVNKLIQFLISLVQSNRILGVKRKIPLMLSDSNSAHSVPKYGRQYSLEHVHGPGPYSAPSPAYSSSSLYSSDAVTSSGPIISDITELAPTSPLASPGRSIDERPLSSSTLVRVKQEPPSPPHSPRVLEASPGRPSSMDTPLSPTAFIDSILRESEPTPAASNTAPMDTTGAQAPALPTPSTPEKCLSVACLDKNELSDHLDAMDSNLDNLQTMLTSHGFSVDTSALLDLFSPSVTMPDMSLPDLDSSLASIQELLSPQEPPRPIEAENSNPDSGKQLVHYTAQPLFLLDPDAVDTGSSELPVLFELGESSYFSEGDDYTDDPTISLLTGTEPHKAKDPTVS

[4] = test system: INS1; test: INS-1E survival protection against cytokine death – cell-based, luminescence, retest, dose response (AID 449756); type: functional; conditions: Rattus norvegicus;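 note: cell death triggered by IL-1 beta plus TNF-alpha plus IFN-gamma mixture; protective hits raise ATP signal compared with cytokine alone wells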
[5] = cells; type: functional, cell-based
[6] = Luminescence-based counterscreen assay for KLF5 inhibitors: dose response cell-based high throughput screening assay to identify cytotoxic compounds using the IEC-6 intestinal epithelial cell line. [Related pubchem assays: 1700 (Primary screen.), 1834 (Confirmation screen.), 1858 (Summary AID.), 1905 (Counterscreen.)]; type: functional
[7] = cells; type: functional, cell-based; remark: listed apart in the source
[8] = molecular target: Lysine-specific demethylase 4C (Homo sapiens, UniProt Q9H3R0); test: inhibition of JMJD2C H3K9me3 demethylation – biochemical, DELFIA europium, cherry-picked samples, dose response (AID 488835); type: functional
Sequence of Lysine-specific demethylase 4C (Q9H3R0 whole entry): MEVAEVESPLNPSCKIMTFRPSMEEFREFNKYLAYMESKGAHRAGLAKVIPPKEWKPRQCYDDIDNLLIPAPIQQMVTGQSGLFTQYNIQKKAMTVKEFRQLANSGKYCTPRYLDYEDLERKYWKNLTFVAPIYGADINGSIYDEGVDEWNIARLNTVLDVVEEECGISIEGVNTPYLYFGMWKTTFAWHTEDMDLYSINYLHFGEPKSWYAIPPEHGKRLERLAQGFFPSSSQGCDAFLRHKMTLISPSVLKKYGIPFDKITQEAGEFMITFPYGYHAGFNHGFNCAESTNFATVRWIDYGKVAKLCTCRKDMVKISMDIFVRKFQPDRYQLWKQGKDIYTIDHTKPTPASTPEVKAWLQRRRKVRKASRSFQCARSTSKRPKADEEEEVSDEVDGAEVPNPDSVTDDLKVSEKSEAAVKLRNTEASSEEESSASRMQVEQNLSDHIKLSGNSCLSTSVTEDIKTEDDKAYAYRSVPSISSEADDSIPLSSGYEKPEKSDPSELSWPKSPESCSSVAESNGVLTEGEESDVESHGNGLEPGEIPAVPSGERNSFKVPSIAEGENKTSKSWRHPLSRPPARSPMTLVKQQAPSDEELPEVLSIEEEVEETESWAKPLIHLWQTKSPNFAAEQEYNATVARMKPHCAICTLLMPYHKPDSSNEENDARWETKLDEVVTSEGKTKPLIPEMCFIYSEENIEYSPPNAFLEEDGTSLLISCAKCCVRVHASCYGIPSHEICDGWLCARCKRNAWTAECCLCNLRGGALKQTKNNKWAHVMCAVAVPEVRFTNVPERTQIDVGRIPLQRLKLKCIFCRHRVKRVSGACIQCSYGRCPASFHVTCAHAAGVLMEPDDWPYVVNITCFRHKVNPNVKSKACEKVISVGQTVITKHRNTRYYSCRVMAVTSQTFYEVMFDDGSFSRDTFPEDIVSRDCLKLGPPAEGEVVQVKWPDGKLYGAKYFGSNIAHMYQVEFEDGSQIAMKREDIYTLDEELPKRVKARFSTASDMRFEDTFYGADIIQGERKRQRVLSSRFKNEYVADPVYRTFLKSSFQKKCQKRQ

[9] = molecular target: T3, Protein RecA (Mycobacterium tuberculosis, UniProt P9WHJ3); test: Fluorescence Cell-Free Homogeneous Dose Retest to Identify Inhibitors of RecA-Intein Splicing Activity. [Related pubchem assays (depositor defined):AID2097, AID2223, AID489010, AID492950]; type: functional
T3 sequence (P9WHJ3 whole entry): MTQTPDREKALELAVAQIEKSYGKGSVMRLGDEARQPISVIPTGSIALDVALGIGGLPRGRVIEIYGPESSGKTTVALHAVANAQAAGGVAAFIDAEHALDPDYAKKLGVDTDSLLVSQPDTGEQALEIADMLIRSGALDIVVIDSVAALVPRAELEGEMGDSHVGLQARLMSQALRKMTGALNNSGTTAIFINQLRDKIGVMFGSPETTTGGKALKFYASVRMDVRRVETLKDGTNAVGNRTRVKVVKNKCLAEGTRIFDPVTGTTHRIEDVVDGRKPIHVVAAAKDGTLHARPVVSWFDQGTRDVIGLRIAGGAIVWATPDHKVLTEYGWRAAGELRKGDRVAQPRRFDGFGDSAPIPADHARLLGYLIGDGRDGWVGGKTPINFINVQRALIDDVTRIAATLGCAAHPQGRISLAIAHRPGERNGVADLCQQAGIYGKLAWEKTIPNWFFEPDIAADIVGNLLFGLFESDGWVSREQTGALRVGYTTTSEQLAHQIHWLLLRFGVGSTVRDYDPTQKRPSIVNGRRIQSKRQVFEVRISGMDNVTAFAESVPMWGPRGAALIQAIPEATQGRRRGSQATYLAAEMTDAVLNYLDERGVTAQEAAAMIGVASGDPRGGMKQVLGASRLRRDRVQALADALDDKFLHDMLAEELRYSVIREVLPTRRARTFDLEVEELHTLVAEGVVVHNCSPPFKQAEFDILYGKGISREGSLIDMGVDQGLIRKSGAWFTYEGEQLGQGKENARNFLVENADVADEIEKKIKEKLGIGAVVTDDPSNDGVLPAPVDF

[10] = molecular target: Mothers against decapentaplegic homolog 3 (Homo sapiens, UniProt P84022); test: inhibitors of SMAD-driven TGF-beta signaling – dose response (AID 715); type: functional
[11] = molecular target: T4, Replicative DNA helicase DnaB (Mycobacterium tuberculosis, UniProt P9WMR3); test: DnaB intein splicing inhibitors, dose response, biochemical, cell-free fluorescence (AID 449749); type: functional
T4 sequence (P9WMR3 whole entry): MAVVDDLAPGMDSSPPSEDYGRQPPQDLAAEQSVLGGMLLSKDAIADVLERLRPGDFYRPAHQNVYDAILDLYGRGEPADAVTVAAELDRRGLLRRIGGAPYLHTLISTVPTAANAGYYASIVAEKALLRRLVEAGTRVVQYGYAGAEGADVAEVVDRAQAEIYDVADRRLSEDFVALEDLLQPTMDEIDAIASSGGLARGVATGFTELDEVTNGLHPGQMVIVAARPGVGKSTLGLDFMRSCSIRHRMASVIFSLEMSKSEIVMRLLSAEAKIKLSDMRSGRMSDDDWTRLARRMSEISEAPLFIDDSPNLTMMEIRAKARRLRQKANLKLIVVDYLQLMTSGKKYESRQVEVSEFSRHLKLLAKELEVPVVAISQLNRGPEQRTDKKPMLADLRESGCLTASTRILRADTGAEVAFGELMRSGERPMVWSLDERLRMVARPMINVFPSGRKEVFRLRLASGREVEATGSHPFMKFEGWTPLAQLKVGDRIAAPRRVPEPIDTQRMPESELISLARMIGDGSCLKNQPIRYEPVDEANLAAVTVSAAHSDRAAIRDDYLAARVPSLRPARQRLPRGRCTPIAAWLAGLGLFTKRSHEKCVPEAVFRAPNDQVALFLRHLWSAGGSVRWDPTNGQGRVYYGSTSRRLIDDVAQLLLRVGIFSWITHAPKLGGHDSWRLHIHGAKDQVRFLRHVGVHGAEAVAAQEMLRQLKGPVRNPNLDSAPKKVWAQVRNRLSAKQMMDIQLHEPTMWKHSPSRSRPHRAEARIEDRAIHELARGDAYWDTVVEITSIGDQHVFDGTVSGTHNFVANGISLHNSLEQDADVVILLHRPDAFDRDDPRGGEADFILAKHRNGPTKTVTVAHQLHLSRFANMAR

[12] = molecular target: Tyrosyl-DNA phosphodiesterase 2 (Homo sapiens, UniProt O95551); test: potency against TDP2 phosphodiesterase activity – biochemical, epi absorbance, IC50, dose response (AID 743297)
Sequence of Tyrosyl-DNA phosphodiesterase 2 (O95551 whole entry): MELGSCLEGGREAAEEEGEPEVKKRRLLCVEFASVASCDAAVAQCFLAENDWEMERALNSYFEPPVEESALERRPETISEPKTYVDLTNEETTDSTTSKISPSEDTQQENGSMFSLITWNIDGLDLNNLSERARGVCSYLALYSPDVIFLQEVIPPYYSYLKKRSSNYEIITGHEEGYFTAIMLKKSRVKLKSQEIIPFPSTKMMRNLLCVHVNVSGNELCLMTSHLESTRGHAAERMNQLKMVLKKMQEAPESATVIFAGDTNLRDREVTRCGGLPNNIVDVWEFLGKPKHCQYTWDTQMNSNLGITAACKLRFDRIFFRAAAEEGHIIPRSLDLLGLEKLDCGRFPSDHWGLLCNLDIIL

[13] = antiviral protection against BTV-induced cell death – arbovirus, BSR cells, confirmation (AID 1250); type: functional;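 note: protection from viral cytopathic effect measured as cell viability by ATP luminescence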
[14] = molecular target: T5, Aminopeptidase N (Plasmodium falciparum FcB1/Columbia, UniProt O96935); test: malaria alanyl aminopeptidase activity blockers – biochemical, fluorogenic H-Leu-NHMec substrate, 1536-well (AID 1445); design: species or system Plasmodium falciparum 3D7, 3D7
T5 sequence (O96935 whole entry): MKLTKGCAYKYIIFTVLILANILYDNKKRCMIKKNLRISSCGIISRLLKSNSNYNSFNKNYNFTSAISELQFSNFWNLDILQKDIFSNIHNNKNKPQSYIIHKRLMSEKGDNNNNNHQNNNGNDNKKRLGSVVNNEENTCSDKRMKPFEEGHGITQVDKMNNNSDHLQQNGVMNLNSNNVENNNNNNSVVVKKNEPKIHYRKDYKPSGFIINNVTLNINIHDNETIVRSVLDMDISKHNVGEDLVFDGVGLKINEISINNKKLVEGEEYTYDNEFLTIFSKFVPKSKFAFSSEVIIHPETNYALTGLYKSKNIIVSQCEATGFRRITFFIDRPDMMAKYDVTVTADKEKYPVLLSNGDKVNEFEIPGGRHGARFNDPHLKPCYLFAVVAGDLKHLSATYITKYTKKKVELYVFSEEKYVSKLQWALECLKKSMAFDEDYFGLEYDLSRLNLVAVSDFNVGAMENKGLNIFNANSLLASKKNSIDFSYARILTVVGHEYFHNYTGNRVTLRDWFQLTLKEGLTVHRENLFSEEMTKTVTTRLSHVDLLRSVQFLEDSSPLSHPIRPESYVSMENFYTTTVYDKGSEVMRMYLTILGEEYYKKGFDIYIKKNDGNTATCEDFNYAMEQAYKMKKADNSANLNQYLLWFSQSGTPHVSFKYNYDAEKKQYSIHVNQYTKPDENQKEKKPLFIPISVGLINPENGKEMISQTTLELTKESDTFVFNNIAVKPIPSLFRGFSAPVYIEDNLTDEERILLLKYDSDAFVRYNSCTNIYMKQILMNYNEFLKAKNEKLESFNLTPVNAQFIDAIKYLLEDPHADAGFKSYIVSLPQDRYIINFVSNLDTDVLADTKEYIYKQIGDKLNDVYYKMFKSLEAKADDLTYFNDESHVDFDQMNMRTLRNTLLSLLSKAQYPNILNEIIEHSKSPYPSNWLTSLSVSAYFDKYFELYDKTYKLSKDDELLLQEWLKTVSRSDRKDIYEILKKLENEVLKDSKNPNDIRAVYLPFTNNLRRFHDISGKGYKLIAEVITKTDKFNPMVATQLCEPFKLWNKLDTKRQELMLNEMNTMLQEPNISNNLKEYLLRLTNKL

[15] = mitochondrial function rescue without frataxin homolog – Friedreich's ataxia, plus single-dose screen, dose response (AID 1465); type: functional;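 note: yeast depleted of Yfh1p frataxin homolog grown on glycerol needing respiration; WST-1 tetrazolium dye reduction as measure of cellular dehydrogenase metabolic activity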
[16] = molecular target: Metabotropic glutamate receptor 4 (Homo sapiens, UniProt Q14833); test: Modulation of the Metabotropic Glutamate Receptor mGluR4: Calcium Assay. [Related pubchem assays: 2180, 2199, 2193, 2179, 2182, 2183, 2191, 2181, 2190, 2188, 2185, 2197 ]; type: functional
Sequence of Metabotropic glutamate receptor 4 (Q14833 whole entry): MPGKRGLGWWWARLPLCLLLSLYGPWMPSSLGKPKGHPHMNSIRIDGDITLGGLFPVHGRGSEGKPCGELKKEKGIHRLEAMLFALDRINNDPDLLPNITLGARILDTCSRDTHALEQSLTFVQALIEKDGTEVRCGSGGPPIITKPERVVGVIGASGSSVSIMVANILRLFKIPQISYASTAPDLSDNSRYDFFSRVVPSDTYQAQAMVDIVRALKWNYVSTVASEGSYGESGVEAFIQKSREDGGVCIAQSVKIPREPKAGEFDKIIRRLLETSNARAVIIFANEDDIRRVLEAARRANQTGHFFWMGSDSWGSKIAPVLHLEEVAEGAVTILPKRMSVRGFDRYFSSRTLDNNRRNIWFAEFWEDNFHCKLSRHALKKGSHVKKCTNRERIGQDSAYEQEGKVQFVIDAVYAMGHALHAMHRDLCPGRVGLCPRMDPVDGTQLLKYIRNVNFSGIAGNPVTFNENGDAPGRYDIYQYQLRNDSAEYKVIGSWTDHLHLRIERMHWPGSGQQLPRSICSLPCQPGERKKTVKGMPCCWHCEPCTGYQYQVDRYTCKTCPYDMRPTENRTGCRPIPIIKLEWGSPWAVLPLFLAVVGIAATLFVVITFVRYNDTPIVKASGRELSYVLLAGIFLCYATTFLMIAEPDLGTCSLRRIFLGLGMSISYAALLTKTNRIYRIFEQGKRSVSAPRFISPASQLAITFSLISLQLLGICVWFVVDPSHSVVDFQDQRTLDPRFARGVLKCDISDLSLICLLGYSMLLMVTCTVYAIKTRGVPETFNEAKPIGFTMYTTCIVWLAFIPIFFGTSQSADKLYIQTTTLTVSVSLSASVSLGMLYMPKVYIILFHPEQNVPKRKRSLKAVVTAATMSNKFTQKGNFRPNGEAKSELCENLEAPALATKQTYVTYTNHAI

[17] = molecular target: Potassium voltage-gated channel subfamily KQT member 2 (Rattus norvegicus, UniProt O88943); test: Mode of action assay - current amplitude concentration response for derivatives of ZTZ240, a potentiator of KCNQ2 potassium channels. [Related pubchem assays: 2258 (Summary assay for the KCNQ2 potentiators.), 2239 (Primary HTS assay for KCNQ2 potentiators with 305606 compounds tested, and 1644 are found to be active.)]; type: functional
Sequence of Potassium voltage-gated channel subfamily KQT member 2 (O88943 whole entry): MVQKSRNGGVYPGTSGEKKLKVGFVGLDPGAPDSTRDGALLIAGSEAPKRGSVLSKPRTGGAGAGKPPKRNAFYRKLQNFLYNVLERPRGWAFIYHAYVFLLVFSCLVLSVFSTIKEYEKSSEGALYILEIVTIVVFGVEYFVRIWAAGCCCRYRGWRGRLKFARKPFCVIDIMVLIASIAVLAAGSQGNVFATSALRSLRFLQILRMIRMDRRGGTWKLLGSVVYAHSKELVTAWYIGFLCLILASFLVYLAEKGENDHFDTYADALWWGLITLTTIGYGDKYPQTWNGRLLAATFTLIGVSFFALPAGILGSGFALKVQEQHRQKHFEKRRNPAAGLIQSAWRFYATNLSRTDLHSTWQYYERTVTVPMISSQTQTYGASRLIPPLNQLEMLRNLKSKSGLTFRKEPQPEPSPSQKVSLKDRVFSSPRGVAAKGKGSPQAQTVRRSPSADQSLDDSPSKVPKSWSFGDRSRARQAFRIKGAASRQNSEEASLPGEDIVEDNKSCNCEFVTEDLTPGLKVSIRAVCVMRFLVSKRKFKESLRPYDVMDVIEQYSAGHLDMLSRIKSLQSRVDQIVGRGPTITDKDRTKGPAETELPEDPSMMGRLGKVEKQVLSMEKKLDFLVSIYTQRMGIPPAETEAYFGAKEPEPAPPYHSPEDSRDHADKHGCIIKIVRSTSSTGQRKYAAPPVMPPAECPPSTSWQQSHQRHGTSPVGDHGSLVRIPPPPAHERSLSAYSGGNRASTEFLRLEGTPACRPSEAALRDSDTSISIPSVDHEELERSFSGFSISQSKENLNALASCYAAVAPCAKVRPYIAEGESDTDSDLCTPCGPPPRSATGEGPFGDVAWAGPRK

Sequence of Ion channel NompC (Q7T1G6 whole entry): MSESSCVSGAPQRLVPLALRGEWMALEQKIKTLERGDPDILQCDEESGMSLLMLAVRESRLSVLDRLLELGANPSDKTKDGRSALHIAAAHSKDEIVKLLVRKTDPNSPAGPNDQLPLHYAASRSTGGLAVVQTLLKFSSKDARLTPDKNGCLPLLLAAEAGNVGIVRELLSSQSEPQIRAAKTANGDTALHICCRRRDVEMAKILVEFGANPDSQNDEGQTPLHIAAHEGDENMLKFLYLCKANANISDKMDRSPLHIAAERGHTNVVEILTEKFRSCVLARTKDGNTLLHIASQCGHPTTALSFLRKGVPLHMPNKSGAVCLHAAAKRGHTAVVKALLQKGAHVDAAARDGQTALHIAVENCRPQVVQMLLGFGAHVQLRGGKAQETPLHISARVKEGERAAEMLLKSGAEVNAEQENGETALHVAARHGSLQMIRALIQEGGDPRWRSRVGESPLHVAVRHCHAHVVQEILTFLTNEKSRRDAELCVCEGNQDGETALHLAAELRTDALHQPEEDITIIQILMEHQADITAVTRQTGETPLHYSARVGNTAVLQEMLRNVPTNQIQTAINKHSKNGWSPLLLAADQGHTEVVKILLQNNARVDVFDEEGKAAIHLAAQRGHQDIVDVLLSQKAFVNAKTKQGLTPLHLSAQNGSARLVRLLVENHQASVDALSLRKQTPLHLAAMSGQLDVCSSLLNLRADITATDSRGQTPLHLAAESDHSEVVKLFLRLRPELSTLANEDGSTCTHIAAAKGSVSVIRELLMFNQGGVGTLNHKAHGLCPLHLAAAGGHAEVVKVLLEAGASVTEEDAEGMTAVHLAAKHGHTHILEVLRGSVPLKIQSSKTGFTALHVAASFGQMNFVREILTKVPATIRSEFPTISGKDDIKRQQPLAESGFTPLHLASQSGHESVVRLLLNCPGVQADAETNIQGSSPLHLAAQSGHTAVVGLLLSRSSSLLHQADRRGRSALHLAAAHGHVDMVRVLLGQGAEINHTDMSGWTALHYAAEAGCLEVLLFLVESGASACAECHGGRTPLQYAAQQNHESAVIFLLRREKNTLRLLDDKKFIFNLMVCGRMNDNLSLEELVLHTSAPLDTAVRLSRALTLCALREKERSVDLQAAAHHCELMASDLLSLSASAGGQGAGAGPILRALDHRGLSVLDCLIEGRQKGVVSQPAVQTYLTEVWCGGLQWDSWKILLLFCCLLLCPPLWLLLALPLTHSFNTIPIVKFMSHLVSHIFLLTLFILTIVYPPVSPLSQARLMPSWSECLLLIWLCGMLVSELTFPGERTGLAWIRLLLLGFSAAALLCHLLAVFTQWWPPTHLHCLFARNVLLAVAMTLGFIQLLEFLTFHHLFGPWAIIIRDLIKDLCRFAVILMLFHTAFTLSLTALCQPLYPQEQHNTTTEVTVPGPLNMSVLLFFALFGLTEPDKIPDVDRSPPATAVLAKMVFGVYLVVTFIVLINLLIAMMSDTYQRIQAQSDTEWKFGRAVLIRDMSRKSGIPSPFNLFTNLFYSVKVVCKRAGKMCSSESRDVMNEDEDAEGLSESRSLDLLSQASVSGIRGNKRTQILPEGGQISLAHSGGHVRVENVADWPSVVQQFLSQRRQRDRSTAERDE

For `Cc1ccc(NC(=O)c2cnc(N3CCN(c4ccccn4)CC3)c3ccccc23)c(Br)c1`, the EC50 [1] was > 29.9 µM (not active), the EC50 [2] was 4.96 µM (active) and the EC50 [3] was 8.67 µM (active).

In the case of `O=C(N/N=C/c1cc(Br)ccc1OC(=O)c1ccc(Br)cc1)c1ccncc1`, the AC50 [4] is reported as 2.29 µM (active), the EC50 [5] is reported as 20 µM (active) and the IC50 [6] is reported as 5.99 µM (active). The EC50 [7] was 121 µM (active).

In the case of `CC1(C)CC(=O)C(C2(O)C(=O)NC(=O)NC2=O)=C(O)C1`, the AC50 [8] is reported as 5.57 µM (active), the EC50 [9] is reported as 2.23 µM (active) and the IC50 [10] is reported as 2.3 µM (active). The AC50 [11] was 1.23 µM (active) and the IC50 [12] was 14.5 µM (inactive).

In the case of `CS(=O)(=O)C1=NSC2=NC(=O)/C(=C\c3ccc(-c4ccccc4)o3)C(=N)N21`, the IC50 [13] is reported as 36 µM (active) and the IC50 [14] is reported as 71.1 µM (active).

In the case of `CCOc1ccc(N=Nc2c(=O)[nH]n3c(C)cc(C)nc23)cc1`, the EC50 [15] is reported as > 100 µM (active).

In the case of `COc1nc(NC(=O)c2ccccn2)ccc1Cl`, the EC50 [16] is reported as 6.4 µM (active).

In the case of `O=C(Nc1ccc(Cl)nc1)c1ccc(F)c(F)c1`, the EC50 [17] is reported as 14.4 µM (active).
